Measured values published in patent publication US20150139936A1, “DOSAGE AND ADMINISTRATION OF BISPECIFIC SCFV CONJUGATES IN COMBINATION WITH ANTI-CANCER THERAPEUTICS” (Merrimack Pharmaceuticals, Inc., priority 2012, published 2015).

How the values were obtained:
[1] = Pre-clinical combination efficacy of MM-111; conditions: with lapatinib, trastuzumab, paclitaxel or docetaxel
[2] = oral; cited from earlier work
[3] = cited from earlier work

Compound: MM-111: bispecific anti-ErbB2/anti-ErbB3 antibody, scFv HSA conjugate, SEQ ID NO:1
- combination effect (efficacy) [1]: additive

Compound: CS(=O)(=O)CCNCc1ccc(-c2ccc3ncnc(Nc4ccc(OCc5cccc(F)c5)c(Cl)c4)c3c2)o1 [lapatinib]
- bioavailability with food consumption [2]: increased

Compound: CC(=O)O[C@@]12CO[C@@H]1C[C@H](O)[C@@]1(C)C(=O)[C@H](O)C3=C(C)[C@@H](OC(=O)[C@H](O)[C@@H](NC(=O)OC(C)(C)C)c4ccccc4)C[C@@](O)([C@@H](OC(=O)c4ccccc4)[C@H]21)C3(C)C [docetaxel, 1,7β,10β-trihydroxy-9-oxo-5β,20-epoxytax-11-ene-2α,4,13α-triyl 4-acetate 2-benzoate 13-{(2R,3S)-3-[(tert-butoxycarbonyl)amino]-2-hydroxy-3-phenylpropanoate}]
- water solubility [3]: more water soluble than paclitaxel
